Results published in patent publication US6362369B1, “Phthalic acid diamide derivatives fluorine-containing aniline compounds as starting material, agricultural and horticultural insecticides, and a method for application of the insecticides” (Nihon Nohyaku Co., Ltd., priority 1997, dated 2002).

How the values were obtained:
[1] = system: diamondback moth (Plutella xylostella); test: Insecticidal effect on diamondback moth (Test Example 1); type: in vivo; conditions: for Insecticidal effect, Test Example 1: diamondback moth, judged by the mortality criterion of Test Example 1; for Insecticidal effect on diamondback moth (Test Example 1), judged grade: mortality judged according to the criterion shown in Test Example 1
Outline: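 Read-out was mortality from hatched-insect counts taken 6 days after the egg-bearing cabbage seedling was immersed, graded by set criteria. Seedlings were air-dried and kept at 25° C after treatment. Groups of 10 insects, in triplicate.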

[2] = system: rice leafroller (Cnaphalocrocis medinalis); test: Insecticidal effect on rice leafroller (Test Example 3); type: in vivo; conditions: 500 ppm, four days after inoculation, 25° C., humidity 70%; for Insecticidal effect, Test Example 3: rice lamina immersed, third-instar larvae of rice leafroller; for Insecticidal effect on rice leafroller (Test Example 3), judged grade: rice lamina dip, third-instar larvae
Outline: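 Groups of 10 third-instar larvae, in triplicate, are placed on air-dried lamina resting on wet filter paper. Incubation runs four days at 25° C with 70% humidity before survivors and dead are tallied.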

## CC(C)NC(=O)c1cccc(I)c1C(=O)Nc1ccc(SCC(F)(F)F)cc1 [compound 420]
[1]
  Insecticidal effect, Test Example 1: A (100)
[2]
  Insecticidal effect, Test Example 3: D (79-50)

## Cc1c(Cl)cccc1NC(=O)c1c(I)cccc1C(=O)NC(C)C [compound 427]
[1]
  Insecticidal effect, Test Example 1: A (100)
[2]
  Insecticidal effect, Test Example 3: D (79-50)

## Cc1cc(F)ccc1NC(=O)c1c(I)cccc1C(=O)NC(C)C [compound 432]
[1]
  Insecticidal effect, Test Example 1: A (100)
[2]
  Insecticidal effect, Test Example 3: A (100)

## CC(C)NC(=O)c1cccc(I)c1C(=O)Nc1ccc(C(F)(F)F)cc1Cl [compound 433]
[1]
  Insecticidal effect, Test Example 1: A (100)
[2]
  Insecticidal effect, Test Example 3: A (100)

## COc1ccc(NC(=O)c2c(I)cccc2C(=O)NC(C)C)c(C)c1 [compound 441]
[1]
  Insecticidal effect, Test Example 1: A (100)
[2]
  Insecticidal effect, Test Example 3: B (99-90)

## Cc1cc(OCC(F)(F)F)ccc1NC(=O)c1c(I)cccc1C(=O)NC(C)C [compound 443]
[1]
  Insecticidal effect, Test Example 1: A (100)
[2]
  Insecticidal effect, Test Example 3: D (79-50)

## Cc1cc(OC(F)(F)C(F)(F)Br)ccc1NC(=O)c1c(I)cccc1C(=O)NC(C)C [compound 444]
[1]
  Insecticidal effect, Test Example 1: A (100)
[2]
  Insecticidal effect, Test Example 3: A (100)

## CC(C)NC(=O)c1cccc(I)c1C(=O)Nc1ccc(OC(F)F)c(F)c1 [compound 448]
[1]
  Insecticidal effect on diamondback moth (Test Example 1), judged grade: A (100)
[2]
  Insecticidal effect on rice leafroller (Test Example 3), judged grade: A (100)

## COc1cc(NC(=O)c2c(I)cccc2C(=O)NC(C)C)ccc1OC(F)F [compound 450]
[1]
  Insecticidal effect on diamondback moth (Test Example 1), judged grade: A (100)
[2]
  Insecticidal effect on rice leafroller (Test Example 3), judged grade: C (89-80)

## Cc1cc(OC(F)(F)C(F)C(F)(F)F)ccc1NC(=O)c1c(I)cccc1C(=O)NC(C)C (stereo not shown) [compound 456]
[1]
  Insecticidal effect on diamondback moth (Test Example 1), judged grade: A (100)
[2]
  Insecticidal effect on rice leafroller (Test Example 3), judged grade: A (100)

## Cc1cc(OC(F)(F)F)ccc1NC(=O)c1c(I)cccc1C(=O)NC(C)C [compound 464]
[1]
  Insecticidal effect on diamondback moth (Test Example 1), judged grade: A (100)
[2]
  Insecticidal effect on rice leafroller (Test Example 3), judged grade: A (100)

## CC(C)NC(=O)c1cccc(I)c1C(=O)Nc1ccc(OC(F)(F)F)cc1Br [compound 466]
[1]
  Insecticidal effect on diamondback moth (Test Example 1), judged grade: A (100)
[2]
  Insecticidal effect on rice leafroller (Test Example 3), judged grade: A (100)

## CC(C)NC(=O)c1cccc(I)c1C(=O)Nc1ccc(OC(F)(F)F)cc1Cl [compound 467]
[1]
  Insecticidal effect on diamondback moth (Test Example 1), judged grade: A (100)
[2]
  Insecticidal effect on rice leafroller (Test Example 3), judged grade: A (100)

## CC(C)NC(=O)c1c(F)cccc1C(=O)Nc1ccc(C(F)(F)C(F)(F)C(F)(F)C(F)(F)F)cc1 [compound 472]
[1]
  Insecticidal effect on diamondback moth (Test Example 1), judged grade: A (100)
[2]
  Insecticidal effect on rice leafroller (Test Example 3), judged grade: B (99-90)

## CC(C)NC(=O)c1c(F)cccc1C(=O)Nc1ccc(OC(F)(F)F)cc1 [compound 475]
[1]
  Insecticidal effect on diamondback moth (Test Example 1), judged grade: A (100)
[2]
  Insecticidal effect on rice leafroller (Test Example 3), judged grade: D (79-50)

## CC(C)NC(=O)c1c(F)cccc1C(=O)Nc1ccc(SC(F)F)cc1 [compound 477]
[1]
  Insecticidal effect on diamondback moth (Test Example 1), judged grade: A (100)
[2]
  Insecticidal effect on rice leafroller (Test Example 3), judged grade: C (89-80)

## CC(C)NC(=O)c1c(F)cccc1C(=O)Nc1ccc(SC(F)(F)C(F)F)cc1 [compound 479]
[1]
  Insecticidal effect on diamondback moth (Test Example 1), judged grade: A (100)
[2]
  Insecticidal effect on rice leafroller (Test Example 3), judged grade: A (100)

## Cc1c(F)cccc1NC(=O)c1cccc(F)c1C(=O)NC(C)C [compound 494]
[1]
  Insecticidal effect on diamondback moth (Test Example 1), judged grade: A (100)
[2]
  Insecticidal effect on rice leafroller (Test Example 3), judged grade: A (100)

## Cc1cc(OC(F)(F)C(F)OC(F)(F)F)ccc1NC(=O)c1cccc(F)c1C(=O)NC(C)C (stereo not shown) [compound 515]
[1]
  Insecticidal effect on diamondback moth (Test Example 1), judged grade: A (100)
[2]
  Insecticidal effect on rice leafroller (Test Example 3), judged grade: C (89-80)

## Cc1cc(SC(C)C)ccc1NC(=O)c1cccc(F)c1C(=O)NC(C)C [compound 518]
[1]
  Insecticidal effect on diamondback moth (Test Example 1), judged grade: A (100)
[2]
  Insecticidal effect on rice leafroller (Test Example 3), judged grade: B (99-90)

## CC(C)NC(=O)c1c(F)cccc1C(=O)Nc1ccc2c(c1)OCO2 [compound 528]
[1]
  Insecticidal effect on diamondback moth (Test Example 1), judged grade: A (100)
[2]
  Insecticidal effect on rice leafroller (Test Example 3), judged grade: A (100)

## Cc1ccc(Cl)cc1NC(=O)c1ccc(F)cc1C(=O)NC(C)C [compound 530]
[1]
  Insecticidal effect on diamondback moth (Test Example 1), judged grade: A (100)
[2]
  Insecticidal effect on rice leafroller (Test Example 3), judged grade: D (79-50)

## Cc1cc(OC(F)F)ccc1NC(=O)c1ccc(F)cc1C(=O)NC(C)C [compound 531]
[1]
  Insecticidal effect on diamondback moth (Test Example 1), judged grade: A (100)
[2]
  Insecticidal effect on rice leafroller (Test Example 3), judged grade: A (100)

## Cc1cc(Cl)ccc1NC(=O)c1cc(F)ccc1C(=O)NC(C)C [compound 532]
[1]
  Insecticidal effect on diamondback moth (Test Example 1), judged grade: A (100)
[2]
  Insecticidal effect on rice leafroller (Test Example 3), judged grade: A (100)

## Cc1cc(OC(F)F)ccc1NC(=O)c1cc(F)ccc1C(=O)NC(C)C [compound 534]
[1]
  Insecticidal effect on diamondback moth (Test Example 1), judged grade: A (100)
[2]
  Insecticidal effect on rice leafroller (Test Example 3), judged grade: A (100)

## CC(C)NC(=O)c1cccc(F)c1C(=O)Nc1cccc(Cl)c1Cl [compound 543]
[1]
  Insecticidal effect on diamondback moth (Test Example 1), judged grade: A (100)
[2]
  Insecticidal effect on rice leafroller (Test Example 3), judged grade: A (100)

## Cc1c(Cl)cccc1NC(=O)c1c(F)cccc1C(=O)NC(C)C [compound 544]
[1]
  Insecticidal effect on diamondback moth (Test Example 1), judged grade: A (100)
[2]
  Insecticidal effect on rice leafroller (Test Example 3), judged grade: A (100)

## Cc1cc(Cl)ccc1NC(=O)c1c(F)cccc1C(=O)NC(C)C [compound 545]
[1]
  Insecticidal effect on diamondback moth (Test Example 1), judged grade: A (100)
[2]
  Insecticidal effect on rice leafroller (Test Example 3), judged grade: A (100)

## Cc1ccc(Cl)cc1NC(=O)c1c(F)cccc1C(=O)NC(C)C [compound 546]
[1]
  Insecticidal effect on diamondback moth (Test Example 1), judged grade: A (100)
[2]
  Insecticidal effect on rice leafroller (Test Example 3), judged grade: A (100)

## Cc1cc(C(F)(F)C(F)(F)F)ccc1NC(=O)c1c(F)cccc1C(=O)NC(C)C [compound 551]
[1]
  Insecticidal effect on diamondback moth (Test Example 1), judged grade: A (100)
[2]
  Insecticidal effect on rice leafroller (Test Example 3), judged grade: A (100)

## Cc1cc(OC(F)(F)C(Cl)(Cl)Cl)ccc1NC(=O)c1c(F)cccc1C(=O)NC(C)C [compound 552]
[1]
  Insecticidal effect on diamondback moth (Test Example 1), judged grade: A (100)
[2]
  Insecticidal effect on rice leafroller (Test Example 3), judged grade: B (99-90)

## Cc1cc(OC(F)(F)C(F)(F)Br)ccc1NC(=O)c1c(F)cccc1C(=O)NC(C)C [compound 554]
[1]
  Insecticidal effect on diamondback moth (Test Example 1), judged grade: A (100)
[2]
  Insecticidal effect on rice leafroller (Test Example 3), judged grade: A (100)

## Cc1cc(C(F)(F)C(F)(F)C(F)(F)F)ccc1NC(=O)c1c(F)cccc1C(=O)NC(C)C [compound 555]
[1]
  Insecticidal effect on diamondback moth (Test Example 1), judged grade: A (100)
[2]
  Insecticidal effect on rice leafroller (Test Example 3), judged grade: B (99-90)

## CC(C)NC(=O)c1cccc(F)c1C(=O)Nc1ccc(OC(F)(F)F)cc1Cl [compound 562]
[1]
  Insecticidal effect on diamondback moth (Test Example 1), judged grade: A (100)
[2]
  Insecticidal effect on rice leafroller (Test Example 3), judged grade: A (100)

## CC(C)NC(=O)c1cccc(F)c1C(=O)Nc1ccc(OC(F)(F)F)cc1Br [compound 563]
[1]
  Insecticidal effect on diamondback moth (Test Example 1), judged grade: A (100)
[2]
  Insecticidal effect on rice leafroller (Test Example 3), judged grade: A (100)

## Cc1cc(OC(F)(F)F)ccc1NC(=O)c1c(F)cccc1C(=O)NC(C)C [compound 564]
[1]
  Insecticidal effect on diamondback moth (Test Example 1), judged grade: A (100)
[2]
  Insecticidal effect on rice leafroller (Test Example 3), judged grade: B (99-90)

## Cc1cc(OC(F)(F)Br)ccc1NC(=O)c1c(F)cccc1C(=O)NC(C)C [compound 565]
[1]
  Insecticidal effect on diamondback moth (Test Example 1), judged grade: A (100)
[2]
  Insecticidal effect on rice leafroller (Test Example 3), judged grade: A (100)

## Cc1cc(OC(F)(F)C(F)F)ccc1NC(=O)c1c(F)cccc1C(=O)NC(C)C [compound 566]
[1]
  Insecticidal effect on diamondback moth (Test Example 1), judged grade: A (100)
[2]
  Insecticidal effect on rice leafroller (Test Example 3), judged grade: B (99-90)

## Cc1cc(Sc2ccc(Cl)cc2)ccc1NC(=O)c1c(F)cccc1C(=O)NC(C)C [compound 575]
[1]
  Insecticidal effect on diamondback moth (Test Example 1), judged grade: A (100)
[2]
  Insecticidal effect on rice leafroller (Test Example 3), judged grade: A (100)

## Cc1cc(Oc2ccc(C(F)(F)F)cn2)ccc1NC(=O)c1c(F)cccc1C(=O)NC(C)C [compound 576]
[1]
  Insecticidal effect on diamondback moth (Test Example 1), judged grade: A (100)
[2]
  Insecticidal effect on rice leafroller (Test Example 3), judged grade: C (89-80)

## Cc1cc(Oc2ncc(C(F)(F)F)cc2Cl)ccc1NC(=O)c1c(F)cccc1C(=O)NC(C)C [compound 577]
[1]
  Insecticidal effect on diamondback moth (Test Example 1), judged grade: A (100)
[2]
  Insecticidal effect on rice leafroller (Test Example 3), judged grade: A (100)

## CC(C)NC(=O)c1cccc(F)c1C(=O)Nc1ccc2c(c1)OCO2 [compound 580]
[1]
  Insecticidal effect on diamondback moth (Test Example 1), judged grade: A (100)
[2]
  Insecticidal effect on rice leafroller (Test Example 3), judged grade: A (100)

## Cc1cc(Cl)ccc1NC(=O)c1c(F)ccc(F)c1C(=O)NC(C)C [compound 582]
[1]
  Insecticidal effect on diamondback moth (Test Example 1), judged grade: A (100)
[2]
  Insecticidal effect on rice leafroller (Test Example 3), judged grade: A (100)

## CC(C)NC(=O)c1c(C(=O)Nc2ccccc2)cccc1[N+](=O)[O-] [compound 585]
[1]
  Insecticidal effect on diamondback moth (Test Example 1), judged grade: A (100)
[2]
  Insecticidal effect on rice leafroller (Test Example 3), judged grade: A (100)

## CC(C)NC(=O)c1c(C(=O)Nc2ccccc2Cl)cccc1[N+](=O)[O-] [compound 586]
[1]
  Insecticidal effect on diamondback moth (Test Example 1), judged grade: A (100)
[2]
  Insecticidal effect on rice leafroller (Test Example 3), judged grade: D (79-50)

## CC(C)NC(=O)c1c(C(=O)Nc2ccccc2Br)cccc1[N+](=O)[O-] [compound 589]
[1]
  Insecticidal effect on diamondback moth (Test Example 1), judged grade: A (100)
[2]
  Insecticidal effect on rice leafroller (Test Example 3), judged grade: A (100)

## CC(C)NC(=O)c1c(C(=O)Nc2ccc([N+](=O)[O-])cc2)cccc1[N+](=O)[O-] [compound 596]
[1]
  Insecticidal effect on diamondback moth (Test Example 1), judged grade: D (79-50)
[2]
  Insecticidal effect on rice leafroller (Test Example 3), judged grade: D (79-50)
